Assay results from patent publication US9458165B2, “DOT1L inhibitors” (Dana-Farber Cancer Institute, Inc., priority 2014, dated 2016).

Assay: Pharmacokinetic study, intravenous 5 mg/kg
Format: in vivo
Settings: CD1 mice, 5 mg/kg, FIG. 8B
Method: Pharmacokinetic studies of the compound of Example 1 (i.e. CC-006) and previously disclosed compounds EPZ004777, CC001 (see U.S. 2014/0051654) and FED1 were performed in CD1 mice following intravenous administration, as detailed in Table 1.
Mean plasma concentration-time profiles representative of the compound of Example 1 (i.e. CC-006) after intravenous dosing (5 mg kg^−1) are shown in FIG. 8A (data represent the mean and s.d. (n=3)). […] From the pharmacokinetic properties, the compound of Example 1 (i.e. CC-006) has potential for use in treatment using intravenous administration due to its long half-life, as compared to subcutaneous administration.

SMILES: CC(C)N(C[C@H]1C[C@@H](n2ccc3c(N)ncnc32)[C@H](O)[C@@H]1O)[C@H]1C[C@@H](CCc2nc3cc(C(C)(C)C)ccc3[nH]2)C1 [CC001, reference compound]
- half-life (T1/2): longest half-life of the compounds tested
